Data reported in patent US10363239B2, “Method for inhibiting growth of cancer cells” (Pain Therapeutics, Inc., priority 2013, dated 2019).

How the values were obtained:
[1] = test system: human mammalian epithelial cells (HMEC); experiment: [3H]glucose uptake; format: cell-based; conditions: 0.1-5 nM; 4 days
Protocol: (§1) FIG. 1A through FIG. 1M illustrate the effects of various FLNA-binding compounds on glucose uptake in glioblastoma, melanoma, breast and pancreatic cancer cell lines, along with appropriate non-cancerous primary cell controls. Cells were grown in the absence or presence of 0.1-5 nM indicated compounds for 4 days. Following brief washes with PBS, cells were serum-deprived for 4 hours and then incubated in oxygenated Kreb's Ringer containing 0.1 μCi [^3H]glucose for 2 hours under constant oxygenation. The reaction was terminated by removal of the incubation medium, and cells were washed and scraped off to determine the amounts of [^3H]glucose in cells by scintillation spectrometry. […] N=5-6. […] . […] . To determine the effect of Compound C0105 on glucose utilization, the cancer and primary normal cells were plated extremely thinly (10%). Once cells attached, Compound C0105 was added at 0.1, 0.5, 1 or 5 nM in the medium twice daily (6 hours apart) for 4 days. The cells were serum-deprived (glucose deprived) for 2 hours. Cells were then rinsed with 1 ml PBS and glucose uptake was assessed by contacting the cells with [^3H]glucose (0.01 uCi/l ml) in Kreb's Ringer for 2 hours. Cells were then rinsed with 1 ml PBS 3 times, scraped off and their glucose content counted by liquid scintillation spectrophotometry.

[2] = test system: primary human pancreatic epithelial cells; experiment: [3H]glucose uptake; format: cell-based; conditions: 0.1-5 nM; 4 days
Protocol: as §1

glioblastoma cells = experiment: Glucose deprivation-induced cell death (cell density); format: cell-based, human; conditions: 0.1 or 1 nM; up to 4 days
Protocol: (§2) The effect of Compound C0105 on cell death induced by glucose withdrawal was assessed in glioblastoma and melanoma cells. Cells were grown to >90% confluence, washed and incubated in 0.1% fetal bovine serum (FBS) for 16 hours and incubated in glucose-free 0.1% FBS-containing medium without or with 0.1 or 1 nM C0105 for up to 4 days. Cell density was assessed at the indicated time point. Data are expressed as mean±S.E.M. of percentage change in cell density compared to cells grown in glucose- and 0.1% FBS-containing medium. […] N=5-6.
(§3) In a separate series of studies, the effect of Compound C0105 on glucose dependence was assessed by changes in cell density. The cancer and primary normal cells were grown to >90% confluency. The cells were washed with PBS, incubated in 0.1% fetal bovine serum (FBS) for 16 hours and incubated in glucose-free 0.1% FBS-containing medium for up to 4 days in the presence of vehicle or 1 nM Compound C0105.

melanoma cells [3] = experiment: as above; format: cell-based, human; conditions: 0.1 or 1 nM; up to 4 days
Protocol: as §2, §3

melanoma cells [4] = experiment: Glucose deprivation-induced apoptosis markers (cleaved PARP-1, caspase-3) by Western blotting; format: cell-based, human; conditions: 1 nM; Day 3 and 4
Protocol: . Cell density was assessed at day 3 and 4. […] . Data are mean±S.E.M. of ratios (FIG. 4B) and % inhibition (FIG. 4C). […] N=5. *p<0.01 compared to Day 0. #p<0.01 compared to vehicle (open bars).
. The cells were washed with PBS, incubated in 0.1% fetal bovine serum (FBS) for 16 hours and incubated in glucose-free 0.1% FBS-containing medium for up to 4 days in the presence of vehicle or 1 nM Compound C0105. The cells in the entire well were collected by centrifugation. […] The protein concentrations were measured by the Bradford method.
The cells were homogenized and the obtained homogenates were centrifuged to remove nucleus and mitochondria. […] The level of apoptotic cell death was determined using Western blotting in 50 μg solubilized cell lysates with antibodies against cleaved PARP-1 (Asp^214) and caspase-3 (Asp^175), both at 1:1000 dilution. […] Bands at the relevant molecular masses of Ki67 and PCNA were quantified by densitometric scan. Membranes were stripped, washed 5× in 0.1% PBST (2 minutes each wash) and the actin content analyzed by immunoblotting using monoclonal anti-actin to illustrate even loading.

[5] = test system: metastatic (liver) neuroendocrine tumor cells; experiment: Cell proliferation by Ki67 and PCNA (Western blotting); format: cell-based, human; conditions: 1 nM; 4 days
[6] = test system: pS2152FLNA, FLNA-associated PTEN and PP2A in primary human pancreatic epithelial cells (HPEC); experiment: pS2152FLNA and FLNA-associated PTEN and PP2A in anti-FLNA immunoprecipitate (Western blotting); format: cell-based; conditions: 0.1-5 nM; 4 days
Protocol: The effect of contact with Compound C0105 on the levels of pS^2152FLNA and FLNA-associated phosphatases, PTEN and PP2A subclasses was determined in MiaPaCa2 and HPECs. Cells were contacted with vehicle and 0.1-5 nM Compound C0105 for 4 days. Cells were washed, solubilized and the cell lysate derived was immunoprecipitated with anti-FLNA. The levels of […] and FLNA-associated phosphatases, PTEN and PP2A subclasses in the anti-FLNA immunoprecipitate were determined by Western blotting. The density of protein bands was quantified by densitometric scan. […] Data are expressed as mean±S.E.M. of ratios (FIGS. 27C, 27E and 27G) and percentage inhibition (FIGS. 27D, 27F and 27H). […] N=4. **p<0.05, *p<0.01 compared to vehicle (open bars). […]
The cell lysates were diluted 5-fold with immunoprecipitation buffer and immunoprecipitated with anti-FLNA, -Akt, -mTOR and -ERK2 as described previously [Talbot et al., J Clin Inv 122(4):1-23 (2012); Wang et al., J Neurosci 32(29):9773-9784 (2012)]. The levels of FLNA linkages, activated phosphorylated Akt (pS^473 and pT^308), phosphorylated mTOR (pS^2448) and phosphorylated ERK2 (pY/pT) were determined in anti-FLNA, -Akt, -mTOR and -ERK2 immunoprecipitates by Western blotting with appropriate antibodies directed against PTEN, PP2A, K-RAS, ras-GAP (FLNA linkages), pS^473Akt, pT^308Akt, pS^2448mTOR and pY/pT ERK2 (activation of Akt, mTOR and ERK2).

How did the Basal glucose uptake [1] turn out when `CN1CCC2(CC1)NCC(=O)N2Cc1ccccc1` [Compound C0105] was run?
The Basal glucose uptake was “no change”.

And the Basal glucose uptake [2]?
The Basal glucose uptake was “no effect”.

What about the “Cell death during glucose withdrawal” value (glioblastoma cells) of the same molecule?
The value was “reduced the amount of cell death”.

And the “Cell death during glucose withdrawal” value (melanoma cells [3])?
Its value is “reduced the amount of cell death”.

And the “Glucose deprivation-induced cell death by cleaved PARP-1 and caspase-3” value (melanoma cells [4])?
Its value is “reduces glucose deprivation-induced cell death”.

And the “Cell proliferation (Ki67 and PCNA levels)” value [5]?
Its value is “Inhibits Proliferation”.

What about the “Phosphatase (PTEN, PP2A) associations with FLNA” value [6] of the same molecule?
Its value is “no effect”.

What about the pS2152FLNA level [6] of the same molecule?
Its pS2152FLNA level is “no effect”.
